In ChEMBL document CHEMBL1153221, “The identification of structurally novel, selective, orally bioavailable positive modulators of mGluR2” (Bioorg Med Chem Lett, 2010):
≈ marks a conversion by molar mass, not a printed value. Calls of active or inactive are those of the source. The calls are words filed in the database; no cut-off is given here.

What was measured:
[1] = target: T1, Metabotropic glutamate receptor 2 (Homo sapiens, UniProt Q14416); assay: Positive modulation of human mGluR2 expressed in CHO cells co-expressing Ga16 G-protein assessed as glutamate-induced response by FLIPR assay; format: cell-based
Target sequence in this assay (Q14416 whole entry): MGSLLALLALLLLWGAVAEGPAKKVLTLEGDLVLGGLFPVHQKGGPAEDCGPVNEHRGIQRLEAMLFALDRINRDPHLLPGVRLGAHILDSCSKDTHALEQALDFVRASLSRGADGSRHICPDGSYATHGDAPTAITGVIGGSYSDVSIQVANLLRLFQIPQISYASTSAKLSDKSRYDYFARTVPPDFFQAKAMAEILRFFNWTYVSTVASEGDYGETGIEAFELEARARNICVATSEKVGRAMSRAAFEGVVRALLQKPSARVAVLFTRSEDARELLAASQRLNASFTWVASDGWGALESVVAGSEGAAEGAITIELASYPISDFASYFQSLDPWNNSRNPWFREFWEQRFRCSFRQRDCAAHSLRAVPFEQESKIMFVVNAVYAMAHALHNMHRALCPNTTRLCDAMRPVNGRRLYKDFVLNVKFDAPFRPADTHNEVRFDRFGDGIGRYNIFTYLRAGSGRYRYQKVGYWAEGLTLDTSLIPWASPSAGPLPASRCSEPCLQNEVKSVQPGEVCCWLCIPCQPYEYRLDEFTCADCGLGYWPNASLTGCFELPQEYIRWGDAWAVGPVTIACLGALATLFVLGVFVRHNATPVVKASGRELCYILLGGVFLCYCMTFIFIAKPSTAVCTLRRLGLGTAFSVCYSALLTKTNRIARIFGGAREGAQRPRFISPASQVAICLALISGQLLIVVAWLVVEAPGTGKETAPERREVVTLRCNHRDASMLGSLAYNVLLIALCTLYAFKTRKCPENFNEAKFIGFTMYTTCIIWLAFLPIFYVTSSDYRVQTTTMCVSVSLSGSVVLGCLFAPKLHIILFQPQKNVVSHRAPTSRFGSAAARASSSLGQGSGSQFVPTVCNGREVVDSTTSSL

[2] = target: T1, Metabotropic glutamate receptor 2; assay: Positive modulation of human mGluR2 expressed in CHO cells co-expressing Ga16 G-protein assessed as glutamate-induced response by FLIPR assay relative to glutamate; format: cell-based
Target sequence in this assay (Q14416 19-872 limits assumed): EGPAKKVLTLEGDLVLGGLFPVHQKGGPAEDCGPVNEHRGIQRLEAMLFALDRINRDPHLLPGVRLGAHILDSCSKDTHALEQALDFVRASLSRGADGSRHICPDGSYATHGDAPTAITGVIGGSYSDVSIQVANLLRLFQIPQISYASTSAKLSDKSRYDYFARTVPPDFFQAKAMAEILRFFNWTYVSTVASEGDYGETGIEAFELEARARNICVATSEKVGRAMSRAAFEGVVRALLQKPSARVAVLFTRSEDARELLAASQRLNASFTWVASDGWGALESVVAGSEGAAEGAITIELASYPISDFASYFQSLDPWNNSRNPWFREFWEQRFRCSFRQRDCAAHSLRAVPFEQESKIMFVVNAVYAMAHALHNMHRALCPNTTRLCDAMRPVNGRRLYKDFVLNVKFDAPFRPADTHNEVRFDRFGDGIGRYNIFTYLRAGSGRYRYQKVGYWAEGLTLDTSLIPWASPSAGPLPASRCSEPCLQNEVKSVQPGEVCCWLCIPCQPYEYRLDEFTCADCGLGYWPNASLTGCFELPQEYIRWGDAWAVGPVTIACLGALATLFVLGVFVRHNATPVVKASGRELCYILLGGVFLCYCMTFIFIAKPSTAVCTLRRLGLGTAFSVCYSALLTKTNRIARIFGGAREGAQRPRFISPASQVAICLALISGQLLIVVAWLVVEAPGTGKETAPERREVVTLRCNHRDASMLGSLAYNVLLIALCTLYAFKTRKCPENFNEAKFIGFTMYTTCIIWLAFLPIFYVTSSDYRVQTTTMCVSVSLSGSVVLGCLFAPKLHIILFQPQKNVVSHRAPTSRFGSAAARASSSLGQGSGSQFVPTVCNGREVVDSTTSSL

[3] = target: T1, Metabotropic glutamate receptor 2; assay: Agonist activity at human mGluR2 expressed in CHO cells co-expressing Ga16 G-protein assessed as glutamate-induced response by FLIPR assay; format: functional, cell-based
Target sequence in this assay (Q14416 whole entry): as the sequence (Q14416 whole entry) above

D(2) dopamine receptor = D(2) dopamine receptor (Homo sapiens, UniProt P14416); assay: Antagonist activity at human D2 receptor expressed in CHO cells co-expressing G0 by [35S]GTPgammaS binding assay; format: functional, cell-based
D(2) dopamine receptor, sequence (P14416 whole entry): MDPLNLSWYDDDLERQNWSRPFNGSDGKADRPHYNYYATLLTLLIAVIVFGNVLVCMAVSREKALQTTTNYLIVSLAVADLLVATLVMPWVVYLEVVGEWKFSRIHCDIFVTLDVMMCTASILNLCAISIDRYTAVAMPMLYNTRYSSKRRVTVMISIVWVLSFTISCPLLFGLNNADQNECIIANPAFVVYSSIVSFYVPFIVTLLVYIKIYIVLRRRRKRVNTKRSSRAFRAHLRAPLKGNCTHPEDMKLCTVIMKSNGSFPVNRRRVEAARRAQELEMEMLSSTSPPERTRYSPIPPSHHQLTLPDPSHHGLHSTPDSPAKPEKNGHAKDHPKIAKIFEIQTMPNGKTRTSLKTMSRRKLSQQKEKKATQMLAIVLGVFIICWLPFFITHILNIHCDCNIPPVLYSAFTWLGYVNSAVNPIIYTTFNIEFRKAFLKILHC

D(3) dopamine receptor = D(3) dopamine receptor (Homo sapiens, UniProt P35462); assay: Antagonist activity at human D3 receptor expressed in CHO cells co-expressing G0 by [35S]GTPgammaS binding assay; format: functional, cell-based
D(3) dopamine receptor, sequence (P35462 whole entry): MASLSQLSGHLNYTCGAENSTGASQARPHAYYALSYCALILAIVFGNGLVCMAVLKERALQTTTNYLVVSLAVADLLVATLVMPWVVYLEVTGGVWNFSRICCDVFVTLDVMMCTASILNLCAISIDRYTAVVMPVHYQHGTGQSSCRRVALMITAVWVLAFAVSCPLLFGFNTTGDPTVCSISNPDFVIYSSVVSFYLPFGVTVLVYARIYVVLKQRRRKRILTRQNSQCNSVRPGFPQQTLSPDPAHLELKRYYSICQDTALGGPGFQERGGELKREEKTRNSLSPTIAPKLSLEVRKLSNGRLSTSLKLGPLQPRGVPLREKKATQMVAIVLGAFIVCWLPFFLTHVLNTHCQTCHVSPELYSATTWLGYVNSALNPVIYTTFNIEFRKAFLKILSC

D(4) dopamine receptor = target: T2, D(4) dopamine receptor (Homo sapiens, UniProt P21917); assay: Antagonist activity at human D4 receptor expressed in HEK293 cells co-expressing Gqo5 G-protein by FLIPR assay; format: functional, cell-based
T2 sequence (P21917 whole entry): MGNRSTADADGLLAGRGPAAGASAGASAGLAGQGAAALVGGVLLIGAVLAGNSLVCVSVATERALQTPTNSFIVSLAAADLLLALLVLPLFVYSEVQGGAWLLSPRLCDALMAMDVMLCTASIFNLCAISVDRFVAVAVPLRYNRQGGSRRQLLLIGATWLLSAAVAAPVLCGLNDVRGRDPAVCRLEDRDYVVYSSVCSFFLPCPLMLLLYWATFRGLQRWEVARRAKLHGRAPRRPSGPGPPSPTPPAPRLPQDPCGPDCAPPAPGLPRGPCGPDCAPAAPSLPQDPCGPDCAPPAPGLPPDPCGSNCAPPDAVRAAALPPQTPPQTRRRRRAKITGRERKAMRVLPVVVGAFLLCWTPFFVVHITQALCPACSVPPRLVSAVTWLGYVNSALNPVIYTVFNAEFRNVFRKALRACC

[4] = Inhibition of field excitatory postsynaptic potential in Wistar rat medial perforant path dentate gyrus after 20 mins by electrophysiological assay; format: functional, tissue-based
[5] = Inhibition of field excitatory postsynaptic potential in Wistar rat medial perforant path dentate gyrus after 20 mins by electrophysiological assay in presence of 10 uM GSK1331268
[6] = target: T3, Metabotropic glutamate receptor 1 (Homo sapiens, UniProt Q13255); assay: Agonist activity at mGluR1; format: functional
[7] = target: T3, Metabotropic glutamate receptor 1; assay: Antagonist activity at mGluR1; format: functional
[8] = target: T4, Metabotropic glutamate receptor 5 (Homo sapiens, UniProt P41594); assay: Agonist activity at mGluR5; format: functional
[9] = target: T4, Metabotropic glutamate receptor 5; assay: Antagonist activity at mGluR5; format: functional
[10] = target: T4, Metabotropic glutamate receptor 5; assay: Positive modulation of mGluR5
[11] = target: Metabotropic glutamate receptor 4 (Homo sapiens) (UniProt Q14833); assay: Agonist activity at mGluR4; format: functional
Metabotropic glutamate receptor 4 (Homo sapiens), sequence (Q14833 whole entry): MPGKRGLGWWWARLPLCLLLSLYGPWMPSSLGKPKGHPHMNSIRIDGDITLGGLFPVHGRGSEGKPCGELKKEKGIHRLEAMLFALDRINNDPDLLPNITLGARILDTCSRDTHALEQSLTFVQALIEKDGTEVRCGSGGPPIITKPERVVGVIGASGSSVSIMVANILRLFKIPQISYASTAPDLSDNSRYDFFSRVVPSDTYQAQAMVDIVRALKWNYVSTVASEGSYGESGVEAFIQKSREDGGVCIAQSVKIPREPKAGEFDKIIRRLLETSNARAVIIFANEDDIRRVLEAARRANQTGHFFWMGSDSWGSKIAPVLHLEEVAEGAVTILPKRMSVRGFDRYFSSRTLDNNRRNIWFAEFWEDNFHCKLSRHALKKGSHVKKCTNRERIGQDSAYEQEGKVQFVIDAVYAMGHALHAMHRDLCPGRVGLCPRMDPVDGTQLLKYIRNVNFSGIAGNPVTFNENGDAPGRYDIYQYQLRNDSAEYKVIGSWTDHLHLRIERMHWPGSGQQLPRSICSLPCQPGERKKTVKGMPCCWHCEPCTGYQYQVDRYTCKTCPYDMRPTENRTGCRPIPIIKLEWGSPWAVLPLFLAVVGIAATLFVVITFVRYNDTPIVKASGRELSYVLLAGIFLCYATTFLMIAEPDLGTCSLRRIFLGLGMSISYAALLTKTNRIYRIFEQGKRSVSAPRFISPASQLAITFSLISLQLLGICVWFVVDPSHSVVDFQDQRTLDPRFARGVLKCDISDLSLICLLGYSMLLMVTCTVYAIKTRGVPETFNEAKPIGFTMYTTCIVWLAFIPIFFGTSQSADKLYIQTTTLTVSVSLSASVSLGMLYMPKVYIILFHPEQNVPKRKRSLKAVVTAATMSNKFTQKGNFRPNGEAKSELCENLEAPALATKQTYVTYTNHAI

[12] = target: Metabotropic glutamate receptor 4 (Homo sapiens) (UniProt Q14833); assay: Antagonist activity at mGluR4; format: functional
[13] = target: Metabotropic glutamate receptor 4 (Homo sapiens) (UniProt Q14833); assay: Positive modulation of mGluR4
[14] = target: T3, Metabotropic glutamate receptor 1; assay: Positive modulation of mGluR1
Target sequence in this assay (Q13255 19-1194 limits assumed): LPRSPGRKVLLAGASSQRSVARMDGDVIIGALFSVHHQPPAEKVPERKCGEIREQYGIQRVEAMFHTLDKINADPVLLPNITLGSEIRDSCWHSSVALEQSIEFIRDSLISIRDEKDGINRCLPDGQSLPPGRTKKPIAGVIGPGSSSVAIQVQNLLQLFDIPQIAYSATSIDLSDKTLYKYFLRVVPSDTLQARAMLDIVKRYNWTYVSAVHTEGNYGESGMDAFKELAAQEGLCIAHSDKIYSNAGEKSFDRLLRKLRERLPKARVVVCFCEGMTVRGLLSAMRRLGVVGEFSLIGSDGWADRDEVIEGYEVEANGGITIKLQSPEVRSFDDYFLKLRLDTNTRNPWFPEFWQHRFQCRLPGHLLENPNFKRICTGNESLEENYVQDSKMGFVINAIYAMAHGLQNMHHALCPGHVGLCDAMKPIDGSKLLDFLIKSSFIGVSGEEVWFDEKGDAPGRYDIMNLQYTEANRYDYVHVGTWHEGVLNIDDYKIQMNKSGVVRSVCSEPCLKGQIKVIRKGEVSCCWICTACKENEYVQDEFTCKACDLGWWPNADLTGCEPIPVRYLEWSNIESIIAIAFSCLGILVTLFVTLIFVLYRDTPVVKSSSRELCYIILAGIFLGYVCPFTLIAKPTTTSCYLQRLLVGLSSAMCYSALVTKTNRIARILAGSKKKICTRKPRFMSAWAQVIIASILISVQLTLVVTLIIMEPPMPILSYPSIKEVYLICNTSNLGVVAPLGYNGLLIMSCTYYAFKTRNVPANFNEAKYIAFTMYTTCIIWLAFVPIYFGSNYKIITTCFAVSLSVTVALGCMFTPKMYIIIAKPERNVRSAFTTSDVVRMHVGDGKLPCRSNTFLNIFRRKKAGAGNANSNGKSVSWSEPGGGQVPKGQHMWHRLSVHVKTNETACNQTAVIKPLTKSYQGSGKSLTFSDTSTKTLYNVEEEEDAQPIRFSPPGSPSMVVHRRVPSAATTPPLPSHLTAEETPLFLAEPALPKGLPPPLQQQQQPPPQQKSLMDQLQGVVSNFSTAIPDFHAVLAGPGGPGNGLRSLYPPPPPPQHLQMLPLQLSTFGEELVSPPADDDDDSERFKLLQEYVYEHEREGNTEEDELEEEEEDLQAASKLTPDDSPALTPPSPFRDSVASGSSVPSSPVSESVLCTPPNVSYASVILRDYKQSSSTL

[15] = Solubility of the compound; format: physicochemical

| EC50 [1] | Emax [2] | EC50 [3] | Ki (D(2) dopamine receptor) | Ki (D(3) dopamine receptor) | Ki (D(4) dopamine receptor) | SMILES | also measured |
| --- | --- | --- | --- | --- | --- | --- | --- |
| 0.158 µM | 76% | 3.16 µM | 0.398 µM | > 10 µM | 0.00794 µM | Cn1c(CN2CCC(c3nc4ccccc4s3)CC2)nc2ccccc21 |  |
| 0.316 µM | 88% | 2 µM | > 10 µM | > 10 µM | 0.794 µM | Cn1c(CN2CCN(c3nc4ccccc4s3)CC2)nc2ccccc21 |  |
| 0.501 µM | 81% | 6.31 µM | > 10 µM | > 10 µM | 1 µM | Cn1c(CN2CCN(c3ccc(C(F)(F)F)cn3)CC2)nc2ccccc21 |  |
| > 3.16 µM |  | > 15.8 µM |  |  |  | Cn1c(CN2CCC(c3ccccn3)CC2)nc2ccccc21 |  |
| 0.0631 µM |  |  |  |  |  | CCn1c(CN2CCN(c3ncc(C(F)(F)F)cc3Cl)CC2)nc2ccccc21 |  |
| 15.8 µM | 100% |  |  |  |  | Cn1c(CN2CCN(c3ccccn3)CC2)nc2ccccc21 |  |
| > 12.6 µM |  |  |  |  |  | Cn1c(CN2CCN(c3ccc(C#N)cc3)CC2)nc2ccccc21 |  |
| 0.794 µM |  | > 15.8 µM | > 10 µM | > 10 µM | 0.126 µM | Cn1c(CN2CCN(c3ccc(Cl)cc3)CC2)nc2ccccc21 |  |
| 0.1 µM | 110% | 2 µM | 0.251 µM | > 10 µM | 0.126 µM | Cn1c(CN2CCC(c3ccc(C(F)(F)F)cc3)CC2)nc2ccccc21 |  |
| 0.2 µM | 89% | 6.31 µM | 0.0251 µM | 0.126 µM | 0.1 µM | Cn1c(CN2CCC(c3ccccc3)CC2)nc2ccccc21 |  |
| 0.0398 µM | 70% | 0.631 µM | 0.794 µM | 1.58 µM | 2.51 µM | Cn1c(CN2CCC(c3ncc(C(F)(F)F)cc3Cl)CC2)nc2ccccc21 |  |
| 0.0794 µM | 91% | 5.01 µM | 0.0158 µM | 0.316 µM | 0.0631 µM | Cn1c(CN2CCC(c3ccc(Cl)cc3)CC2)nc2ccccc21 |  |
| 0.794 µM |  |  |  |  |  | CCCn1c(CN2CCN(c3ncc(Cl)cn3)CC2)nc2ccccc21 |  |
|  |  |  |  |  |  | COc1ccccc1Oc1ccc(N(Cc2cccnc2)S(=O)(=O)CC(F)(F)F)cc1 | pEC50 [4]: 6.864; pEC50 [5]: 7.364 |
| 0.126 µM |  |  |  |  |  | Clc1cnc(N2CCN(Cc3nc4ccccc4n3Cc3ccccc3)CC2)nc1 |  |
| 5.01 µM | 100% | > 15.8 µM |  |  |  | Cn1c(CN2CCN(c3ccccc3)CC2)nc2ccccc21 |  |
| 0.501 µM |  |  |  |  |  | COCCn1c(CN2CCN(c3ncc(Cl)cn3)CC2)nc2ccccc21 |  |
| 0.1 µM | 94% | 2.51 µM | 0.126 µM | > 10 µM | 0.251 µM | Cn1c(CN2CCC(c3cccc(C(F)(F)F)c3)CC2)nc2ccccc21 |  |
| 0.0501 µM |  |  |  |  |  | Cn1c(CN2CCN(c3ncc(C(F)(F)F)cc3Cl)CC2)nc2cc(C#N)ccc21 |  |

| EC50 [1] | Emax [2] | EC50 [3] | Ki (D(2) dopamine receptor) | Ki (D(3) dopamine receptor) | Ki (D(4) dopamine receptor) | SMILES | also measured |
| --- | --- | --- | --- | --- | --- | --- | --- |
| 0.0794 µM | 71% | 2 µM | 5.01 µM | 5.01 µM | 0.631 µM | Cn1c(CN2CCN(c3ncc(C(F)(F)F)cc3Cl)CC2)nc2ccccc21 | Activity [6]: inactive; Activity [7]: inactive; Activity [8]: inactive; Activity [9]: inactive; Activity [10]: inactive; Activity [11]: inactive; Activity [12]: inactive; Activity [13]: inactive; Activity [14]: inactive |
| 0.126 µM |  | 3.98 µM | 0.0398 µM |  |  | Cn1c(CN2CCC(c3ccccc3F)CC2)nc2ccccc21 | EC50 [6]: > 15.8 µM; EC50 [7]: > 15.8 µM; EC50 [8]: > 15.8 µM; EC50 [9]: > 15.8 µM; EC50 [10]: > 15.8 µM; solubility [15]: 31 µg/mL (≈ 95.9 µM) |
| 0.2 µM | 84% | 6.31 µM | > 10 µM | > 10 µM | 0.398 µM | Cn1c(CN2CCN(c3ccc(C(F)(F)F)cc3)CC2)nc2ccccc21 |  |
| 0.316 µM | 94% | 6.31 µM | > 3.16 µM | 0.501 µM |  | Cn1c(CN2CCC(c3ccccc3C(F)(F)F)CC2)nc2ccccc21 |  |
| 0.158 µM |  |  |  |  |  | COCCn1c(CN2CCN(c3ncc(C(F)(F)F)cc3Cl)CC2)nc2ccccc21 |  |
| 2.51 µM |  |  |  |  |  | CCCn1c(CN2CCN(c3ncc(C(F)(F)F)cc3Cl)CC2)nc2ccccc21 |  |
| 0.2 µM |  |  |  |  |  | Cn1c(CN2CCN(c3ncc(C(F)(F)F)cc3Cl)CC2)nc2cc(F)ccc21 |  |
| 0.126 µM | 69% | 1.26 µM | > 10 µM | > 10 µM | 2.51 µM | Cn1c(CN2CCN(c3ncc(Cl)cn3)CC2)nc2ccccc21 | Activity [6]: inactive; Activity [7]: inactive; Activity [8]: inactive; Activity [9]: inactive; Activity [10]: inactive; Activity [11]: inactive; Activity [12]: inactive; Activity [13]: inactive; Activity [14]: inactive |
| 0.794 µM | 64% | 6.31 µM |  |  |  | Cn1c(CN2CCN(c3ccccc3F)CC2)nc2ccccc21 |  |
| 0.316 µM | 84% | > 15.8 µM |  |  | 0.631 µM | Cn1c(CN2CCN(c3ccccc3C(F)(F)F)CC2)nc2ccccc21 |  |
| 0.158 µM |  |  |  |  |  | CCn1c(CN2CCN(c3ncc(Cl)cn3)CC2)nc2ccccc21 |  |
| 0.126 µM | 69% | 2.51 µM |  |  | 0.251 µM | Cn1c(CN2CCN(c3ccc(Cl)cc3F)CC2)nc2ccccc21 |  |
| 0.126 µM |  |  |  |  |  | Cn1c(CN2CCN(c3ncc(C(F)(F)F)cc3Cl)CC2)nc2ccc(F)cc21 |  |
| 2 µM |  |  |  |  |  | Cn1c(CN2CCN(c3ncc(C(F)(F)F)cc3Cl)CC2)nc2cc(C(F)(F)F)ccc21 |  |
| 12.6 µM |  |  |  |  |  | Clc1cnc(N2CCN(Cc3nc4ccccc4[nH]3)CC2)nc1 |  |
| 0.2 µM | 84% | 2.51 µM | 0.0794 µM | 3.98 µM | 0.2 µM | Cn1c(CN2CCC(c3nsc4ccccc34)CC2)nc2ccccc21 |  |
| 0.126 µM |  |  |  |  |  | FC(F)(F)c1cnc(N2CCN(Cc3nc4ccccc4n3Cc3ccccc3)CC2)c(Cl)c1 |  |
| 12.6 µM |  |  |  |  |  | FC(F)(F)c1cnc(N2CCN(Cc3nc4ccccc4[nH]3)CC2)c(Cl)c1 |  |
| 0.1 µM | 92% | 3.98 µM | 0.0398 µM | 1.58 µM | 0.251 µM | Cn1c(CN2CCC(c3cccc(Cl)c3)CC2)nc2ccccc21 |  |
